Common to all, as to assay: NCI tumour cell line growth inhibition, 48 h
For assay [1], the system named is MALME-3M melanoma.
Assay [2] deals with OVCAR-4 ovarian.
Assay [3] has as its system SN12C renal.
The test system of assay [4] is HOP-62 NSCLC.
Assay [5] relates to OVCAR-5 ovarian.
Assay [6] deals with KM12 colon.
In assay [7] the test system is COLO 205 colon.
The test system of assay [8] is ACHN renal.
Assay [9] concerns MDA-MB-231 breast.
Assay [10] concerns HS 578T breast.
For assay [11], the system named is M14 melanoma.
For assay [12], the system named is OVCAR-3 ovarian.
The subject of assay [13] is HCC-2998 colon.
Assay [14] concerns SW-620 colon.
The subject of assay [15] is SR leukemia.

“And” between values parts separate entries of the source, which are not always exact repeats. Equal entries are not always repeated.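 1) Cells in 96-well plates. 2) Compound, 48 h, 5 concentrations. 3) Linear interpolation between surrounding doses. 4) Unreached endpoint = highest concentration. GI50: concentration for 50% inhibition of growth. TGI: concentration producing complete growth inhibition.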

Turning to `Fc1ccc(C(OCCN2CCC3CCC(C2)N3CCCc2ccccc2)c2ccc(F)cc2)cc1` (stereo not drawn), the TGI in assay [1] was 5.46 µM; in assay [2], 22.3 µM; in assay [3] it was 12.7 µM; in [4], 23.3 µM; in assay [5], 20.3 µM; in assay [6] it was 11.3 µM. Also, the TGI stood at 2.67 µM in assay [7]; 18.2 µM in assay [8]; 13.6 µM in assay [9]; 19.7 µM in [10]; 4.76 µM in assay [11]; 14.8 µM in assay [12]. In addition, the TGI came to 4.05 µM in assay [13] and 19.9 µM in assay [14].

As to `CN(C)c1ccc(C2CC(=O)CC(c3ccc(N(C)C)cc3)C23C(=O)NC(=O)NC3=O)cc1` (stereo not drawn), the TGI in assay [1], in [2], in assay [3], in assay [4], in assay [5] and in assay [6] was over 25 µM throughout. The TGI in [7], in assay [15], in assay [8], in [9], in [11] and in assay [12] was over 25 µM throughout. The TGI in assay [13] and in [14] was over 25 µM throughout.

`N[C@@H]1C[C@H](N)c2c(Cl)sc(Cl)c21`: the TGI in assay [2], in assay [3], in assay [4], in assay [5], in assay [6] and in assay [7] was over 100 µM in each case. Further, the TGI in assay [15], in [8], in assay [9], in assay [11], in [12] and in [13] was over 100 µM each time. Moreover, the TGI in assay [14] was over 100 µM.

As for `CC(C#N)Nc1ccc(Oc2ccc(C(C)(C)c3ccc(Oc4ccc(NC(C)C#N)cc4)cc3)cc2)cc1` (stereo not drawn), the TGI in [1], in [2], in assay [3], in assay [5], in [6] and in assay [7] was over 100 µM throughout. Besides, the TGI is over 100 µM in [8]; over 100 µM in assay [9]; 94 µM in assay [10]; over 100 µM in [11]; over 100 µM in [12]; over 100 µM in [13]. Also, the TGI in assay [14] was over 100 µM.

On to `COc1ccc(CCN2CCC(C#N)(c3ccc(OC)c(OC)c3)CC2)cc1OC`, for which the TGI in assay [1], in assay [2], in assay [3], in assay [4], in assay [5] and in [6] was over 100 µM throughout. The TGI in assay [7], in assay [15], in [8], in [11], in assay [12] and in assay [13] was over 100 µM in each case. The TGI in assay [14] is over 100 µM.

`N#Cc1cnn2c1n[n+]([O-])c1ccc(Cl)cc12`: the TGI in [1] is 19.8 µM; in [2], 4.03 µM; in assay [3], 20.7 µM; in assay [4] it was 38.6 µM; in assay [5], over 76.8 µM; in [6], over 100 µM. The TGI in assay [7] is 31.7 µM; in [8] it was 10.5 µM; in assay [9], 35.5 µM; in assay [10], over 24.7 µM; in [11] it was 31.8 µM; in [12] it was 9.08 µM. In addition, the TGI was determined as 3.46 µM in assay [13] and 29.6 µM in assay [14].

With `C/C(C=O)=C1\C(O)C[C@]1(C)C1CC(C)(C)CC1O` (stereo partly drawn), the TGI is over 100 µM in assay [1]; 93.9 µM in assay [2]; over 100 µM in assay [3]; over 100 µM in assay [4]; over 100 µM in [5]; over 100 µM in [6]. The TGI in assay [7], in [15], in assay [8], in [11], in [12] and in assay [13] was over 100 µM each time. The compound also showed a TGI in [14] of over 100 µM.

Regarding `O=C(Nc1ccc(C(F)(F)F)cc1[N+](=O)[O-])C(=O)C(C(=O)c1ccc2ccccc2c1)C1OC(=O)c2ccccc21` (stereo not drawn), the TGI in [1] was 25.8 µM; in assay [2] it was over 50.4 µM; in assay [3], 33.5 µM; in [4], 14.8 µM; in assay [5], 26.5 µM; in [6] it was 24.4 µM. Moreover, the TGI in [7] was 32.7 µM; in [15], over 100 µM; in assay [8], over 84.9 µM; in assay [11] it was 28.1 µM; in assay [12], over 51 µM; in assay [13] it was 18.3 µM. Moreover, the TGI in [14] worked out at 21.9 µM.

As for `COC(=O)/C=C/c1cc(OC)c2c(c1)C(C(=O)OC)C(c1ccc(OC)c(OC)c1)O2` (stereo not drawn), the TGI in [1], in assay [2], in assay [3], in assay [4], in assay [5] and in assay [6] was over 100 µM in each case. Also, the TGI is > 100 µM and 17.6 µM in [7]; over 100 µM in assay [15]; over 100 µM in [8]; over 100 µM in [9]; over 100 µM in assay [11]; over 100 µM in assay [12]. In addition, the TGI in assay [13] and in assay [14] was over 100 µM each time. In addition, the GI50 in [2] is 45.9 µM and 8.71 µM; in assay [5], over 100 µM; in [13], > 100 µM and 38.6 µM.

On to `NN/C(=N\S(=O)(=O)c1cc(Cl)c(Oc2ccc([N+](=O)[O-])cc2Cl)c(Cl)c1)Nc1ccc(Cl)cc1`, for which the TGI in assay [1] worked out at 37.2 µM; in [2] it was 57.1 µM; in assay [3], 33.2 µM; in [4], 41 µM; in assay [5] it was 55 µM; in assay [6], 42.1 µM. Further, the TGI in [7] is 29 µM; in assay [15] it was 57.7 µM; in assay [8] it was 67.4 µM; in assay [9], 39.9 µM; in [11], 31.2 µM; in [12], 33 µM. This compound registered a TGI in assay [14] of over 100 µM.

For `Oc1cn(-c2ccc(Cl)cc2)nc1-c1nnc(Nc2ccccc2)o1`, the TGI in assay [1] was 50.1 µM; in assay [2] it was over 100 µM; in assay [3] it was 32.2 µM; in assay [4] it was 31.6 µM; in assay [5] it was over 100 µM; in assay [6], 37.2 µM. Further, the TGI is 51 µM in [7]; 71.6 µM in assay [8]; 27.4 µM in [9]; 51.2 µM in [10]; 37.5 µM in assay [11]; over 100 µM in [12]. The compound also registered a TGI in [14] of 41 µM.

On to `CC(C)=CCC/C(C)=C/Cc1cc(/C=C/c2cc(O)c(CC=C(C)C)c(O)c2)cc(O)c1O`, for which the TGI turned out to be 18.6 µM in [1]; 7.1 µM in [2]; 3.95 µM in [3]; 24.4 µM in assay [4]; 15.4 µM in assay [5]; 14.7 µM in [6]. Also, the TGI was 33.4 µM in assay [7]; 3.19 µM in [8]; 23.8 µM in assay [9]; 26.8 µM in [10]; 16 µM in [11]; 5.83 µM in [12]. The results for the TGI in [13] and in assay [14] were 5.86 µM and 14.5 µM, respectively.

In the case of `COc1c(O)cc(/C=C/c2cc(O)cc3c2[C@@]2(C(=O)O3)c3c(O)cc(O)cc3OC2c2cccc(O)c2)cc1O` (stereo partly drawn), the TGI in [1] is over 100 µM; in [2], 91 µM; in assay [3], 64.3 µM; in assay [4], over 100 µM; in [6], over 100 µM; in [7], over 100 µM. For the same compound, the TGI in assay [15] was 26.5 µM; in assay [8], over 100 µM; in assay [9] it was over 100 µM; in [10], over 100 µM; in assay [11], over 100 µM; in assay [12], over 100 µM. Also, the TGI in assay [14] is over 100 µM.

`O=C(CCN(CCO)CCO)Nc1ccc2c(c1)C(=O)c1ccc(NC(=O)CCN(CCO)CCO)cc1C2=O`: the TGI in [1] was 27.9 µM; in [2], over 100 µM; in assay [3], over 100 µM; in [4], 98.3 µM; in [5], over 100 µM; in assay [6], 31.2 µM. Besides, the TGI is 29.5 µM in [7]; over 100 µM in assay [15]; over 100 µM in [8]; 38.3 µM in assay [11]; 51.3 µM in assay [12]; 8.52 µM in [13]. Moreover, the TGI in [14] was 33.4 µM.

Consider `CC1CCCc2c(-c3ccc(Cl)cc3)nc(N)c(C#N)c21` (stereo not drawn), for which the TGI in assay [1] is over 100 µM; in assay [3], over 100 µM; in [4], 63 µM; in assay [5] it was over 100 µM; in assay [6], 56.7 µM; in assay [7], 48.3 µM. The TGI in assay [15] is 40.5 µM; in [8], over 100 µM; in [9], over 100 µM; in [10], over 100 µM; in assay [11] it was 86 µM; in assay [12] it was over 100 µM. The compound further had a TGI in assay [14] of over 100 µM.

Take `CSc1nc(C)cc(Nc2ccc(O)c(CN3CCCCC3)c2)n1`: the TGI in assay [1], in assay [2], in assay [3], in assay [4], in assay [5] and in [6] was over 100 µM in each case. Further, the TGI was over 100 µM in assay [7]; over 100 µM in [15]; over 100 µM in assay [8]; over 100 µM in [10]; 31.8 µM in assay [11]; over 100 µM in [12]. In [14], this compound displayed a TGI of over 100 µM.

As for `CCCOC(=O)c1cc(C(=CCC[C@H]2CC[C@@]3(C)[C@@H](CC[C@@H]4[C@@H]3CC[C@]3(C)[C@@H](C(C)CCCC(C)C)CC[C@@H]43)C2)c2cc(Cl)c(O)c(C(=O)OCCC)c2)cc(Cl)c1O` (stereo partly drawn), the TGI in assay [2], in [3], in [4], in assay [6], in assay [7] and in [9] was over 50 µM in each case. For the same compound, the TGI in [10], in assay [12], in assay [13] and in assay [14] was over 50 µM in each case.

For `Cc1ccc(-c2c(C#N)c(-c3ccc(N(C)C)cc3)c(C#N)c(=O)n2NS(=O)(=O)c2ccccc2)cc1`, the TGI in assay [1], in assay [2], in assay [3], in assay [4], in assay [5] and in [6] was over 100 µM in each case. Besides, the TGI in [7], in assay [8], in [9], in [10], in assay [11] and in assay [13] was over 100 µM throughout. Further, the TGI in assay [14] is over 100 µM.

`COc1ccc(NC=O)c(C(O)CCNC(C)=O)c1` (stereo not drawn): the TGI in assay [2], in assay [3], in [5], in assay [6], in [7] and in assay [15] was over 100 µM each time. Further, the TGI in [8], in [9], in assay [10], in assay [11], in assay [12] and in assay [14] was over 100 µM throughout.

For the compound `Nc1ncc2c(n1)-c1ccccc1OC2NC1CC1` (stereo not drawn), the TGI in [2], in assay [3], in [5], in assay [6], in [7] and in assay [15] was over 100 µM each time. The TGI in assay [8], in assay [9], in assay [10], in [11], in [12] and in [14] was over 100 µM each time.

Source of the values: PubChem BioAssay (NCI).
